Assay results reported in patent US10696971B2, “MrgprX2/MrgprB2 expressing cell based assay to detect pseudo-allergic drug reactions and to identify blockers to prevent the adverse reactions” (The Johns Hopkins University, priority 2014, dated 2020).
Entries after “also recorded” stand apart in the source; their conditions may differ.

Assays:
[1] = target: T1, MrgprB2 (Mus musculus, UniProt Q3KNA1); test: Calcium imaging / EC50 determination in HEK293 cells expressing MrgprB2 (MrgprB2-HEK); format: cell-based; settings: HEK293 cells heterologously expressing MrgprB2
T1 construct: expressed in transfected cells
T1 sequence (Q3KNA1 1-338): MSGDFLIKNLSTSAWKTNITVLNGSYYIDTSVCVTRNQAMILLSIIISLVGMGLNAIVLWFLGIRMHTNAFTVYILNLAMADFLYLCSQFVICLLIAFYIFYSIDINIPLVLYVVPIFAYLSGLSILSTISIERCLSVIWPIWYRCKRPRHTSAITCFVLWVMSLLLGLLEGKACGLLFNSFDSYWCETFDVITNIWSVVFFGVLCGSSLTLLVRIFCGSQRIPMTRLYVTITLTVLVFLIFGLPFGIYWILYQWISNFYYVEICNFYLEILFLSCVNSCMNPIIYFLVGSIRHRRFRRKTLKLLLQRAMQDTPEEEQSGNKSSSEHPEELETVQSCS
Protocol: In initial screens, HEK293 cells (not tested for Mycoplasma but rapidly dividing) were transiently transfected with gene constructs including a C-terminal FLAG tag, and plated on 100 μg/ml poly-D-lysine coated glass cover slips six hours after transfection. […] Later experiments utilized cell lines stably expressing receptors along with transient or stable expression of the promiscuous G protein Gα15. […] Unless otherwise specified, drugs were perfused into the chamber for 45 to 60 seconds and responses were monitored at 5-second intervals for an additional 60-90 seconds.
HEK293 cells stably expressing Galpha15 and either MrgprB2 or MrgprX2 were plated at 4×10^4 cells per well in 96-well plates and incubated overnight. […] Cells were incubated at 37° C. for 60 minutes, and allowed to recover for 15 minutes at room temperature before imaging in a Flexstation 3 (Molecular Devices). Wells were imaged according to manufacturer's specifications for 120 seconds, with 50 μl of test substances at 3× concentration added 30 seconds after imaging began. Responses were determined by subtracting the minimum signal from the maximum signal. Substances were tested in duplicate wells, the signals were averaged, and EC50s were determined for each trial by normalizing to the peak response to the substance in that trial.

[2] = tested on: mouse peritoneal mast cells; test: Peritoneal mast cell Fluo-4 calcium imaging, WT vs MrgprB2^MUT; format: cell-based; settings: for activation / responsiveness of peritoneal mast cells, WT vs MrgprB2^MUT: Fluo-4 imaging, concentrations per FIG. 2A, 2E, 3A, 4C, 4E, 11 legends
Protocol: Adult male and female mice 2-5 months of age were sacrificed through CO2 inhalation. A total of 12 mls of ice cold mast cell dissociation media (MCDM; HBSS with 3% fetal bovine serum and 10 mM HEPES, pH 7.2) were used to make two sequential peritoneal lavages, which were combined and cells were spun down at 200 g. The pellet from each mouse was resuspended in 2 mls MCDM, layered over 4 mls of an isotonic 70% Percoll suspension (2.8 mls Percoll, 320 μls 10×HBSS, 40 μl 1 M HEPES, 830 μl MCDM), and spun down for 20 minutes, 500 g, 4° C. Mast cells were recovered in the pellet. Purity was >95%, as assayed by avidin staining and by morphology. Mast cells were resuspended at 5×10^5-1×10^6 cells/ml in DMEM with 10% fetal bovine serum and 25 ng/ml recombinant mouse stem cell factor (Sigma), and plated onto glass cover slips coated with 30 μg/ml fibronectin (Sigma). For counting, instead of plating, suspended mast cells were diluted 1/10 and affixed to slides by spinning at 1000 rpm for 5 minutes at 4° C. on a CytoSpin (Thermo Scientific).
For imaging, after two hours of incubation at 37° C., 5% CO2, mast cells were loaded with Fluo-4 along with 0.02% Pluronic F-127 for 30 minutes at room temperature, washed 3 times in CIB and used immediately for imaging. Cells were used within two hours of loading. Cells were identified as responding if the [Ca^2+]i rose by at least 50% for at least 10 seconds, which clearly distinguishes a ligand-induced response from random flickering events. Average traces were calculated by taking the average response from each cell in a mouse, and averaging those.

[3] = tested on: peritoneal mast cells; test: Mouse peritoneal mast cell histamine release assay; format: cell-based; settings: WT vs MrgprB2^MUT peritoneal mast cells
Protocol: Mast cells were purified as with the calcium imaging assay and allowed to recover for 2 hours in DMEM with 10% FBS and 25 ng/ml mouse stem cell factor in a 37° C. incubator with 5% CO2. Cells were then spun down, resuspended in CIB, counted, and plated at 300 cells/well in 75 μl CIB in 96-well plates coated with 20 μg/ml fibronectin (Sigma). They were allowed to adhere to the substrate for 45 minutes at 37° C. in atmospheric conditions (i.e. CO2 levels were not adjusted) before assay. […] After 5 minutes, 40 μl of supernatant was aspirated, diluted with 40 μl CIB and frozen at −80° C. until histamine levels were determined. Anti-IgE treatment was similar, except that cells were incubated for 30 minutes at 37° C. after anti-IgE was added before aspiration of supernatant. Histamine content was determined by using an HTRF histamine assay kit (Cisbio Assays) according to the manufacturer's instructions.

[4] = tested on: LAD2 human mast cells; test: LAD2 degranulation assay (β-hexosaminidase release), with MrgprX2 siRNA knockdown; format: cell-based; settings: for β-hexosaminidase release in MrgprX2 siRNA vs control siRNA cells: compound 48/80 0.1, mastoparan 5, icatibant 10, atracurium 25, ciprofloxacin 75 μg/ml
Protocol: LAD2 cells were sensitized for 20 hours with 0.5 μg/ml biotin-conjugated human IgE (Abbiotec). Cells were washed, resuspended in Hepes buffer (10 mM HEPES, 137 mM NaCl, 2.7 mM KCl, 0.38 mM Na2HPO4.7H2O, 5.6 mM glucose, 1.8 mM CaCl2.H2O, 1.3 mM MgSO4.7H2O, 0.4% BSA, pH 7.4) at 0.025×10^6 per well, and then stimulated with 0.1 μg/ml streptavidin (Life Technologies) or other agonists at the indicated concentrations for 30 minutes at 37° C./5% CO2. The β-hexosaminidase released into the supernatants and in cell lysates was quantified by hydrolysis of p-nitrophenyl N-acetyl-β-D-glucosamide (Sigma-Aldrich) in 0.1 M sodium citrate buffer (pH 4.5) for 90 minutes at 37° C. The percentage of β-hexosaminidase release was calculated as a percent of total content.
LAD2 cells were washed with medium, suspended at 0.5×10^6 cells per well, and transfected with 100 nm MrgprX2 siRNA and control siRNA in antibiotic-free StemPro medium using Lipofectamine 3000 (Life Technologies) according to the manufacturer's instruction at 37° C./5% CO2. At 48 hours, knockdown was confirmed by reverse-transcriptase PCR, and the cells were used for degranulation assays.

[5] = Drug preparation and storage observations; format: physicochemical
Protocol: Propranolol also was prepared fresh on the day of the experiment to minimize the chances of a loss in potency. All fluoroquinolones except levofloxacin were dissolved into CIB adjusted to pH 3.5. All other drugs were prepared as 100×-1000× aliquots and stored at −80° C. before thawing at 4° C. and diluting into calcium imaging buffer or saline.

[6] = tested on: WT and MrgprB2^MUT mice; test: Hindpaw swelling and Evans Blue extravasation; format: in vivo, mouse
Protocol: Adult male mice up to 8 months of age were anesthetized with an i.p. injection of 50 mg/kg pentobarbital (Sigma). 15 minutes after induction of anesthesia, mice were injected i.v. with 50 μl of 12.5 mg/ml Evans Blue (Sigma) in saline. 5 minutes later, 5 μl of the test substance (or 7 μl of anti-IgE) was administered by intraplantar injection in one paw and saline was administered in the other paw. Paw thickness was measured by calipers immediately after injection. 15 minutes later (30 minutes after anti-IgE), paw thickness was measured again and mice were sacrificed by decapitation. Paw tissue was collected, dried for 24 hours at 50° C., and weighed. Evans Blue was extracted by a 24 hour incubation in formamide at 50° C., and the O.D. was read at 620 nm using a spectrophotometer. For studies using ketotifen, mice were injected i.p. with 25 μl of a 10 mg/ml solution of ketotifen at the same time as pentobarbital.

Molecule: CC(C)C[C@H](NC(=O)[C@H](C)NC(=O)[C@H](Cc1c[nH]c2ccccc12)NC(=O)[C@H](CCCCN)NC(=O)[C@H](CC(N)=O)NC(=O)[C@H](Cc1c[nH]c2ccccc12)NC(=O)[C@H](CCCCN)NC(=O)[C@H](CCCCN)NC(=O)[C@H](CCCNC(=N)N)NC(=O)[C@@H](N)Cc1ccccc1)C(=O)N[C@@H](CO)C(=O)N[C@@H](CCCNC(=N)N)C(N)=O [PAMP (9-20)]
- response of MrgprB2-HEK cells ([Ca2+]i) [1]: responded
- activation / responsiveness of peritoneal mast cells, WT vs MrgprB2^MUT [2]: strongly activated WT but not MrgprB2^MUT mast cells

Molecule: CSCC[C@H](NC(=O)[C@H](CC(C)C)NC(=O)CNC(=O)[C@H](Cc1ccccc1)NC(=O)[C@H](Cc1ccccc1)NC(=O)[C@H](CCC(N)=O)NC(=O)[C@H](CCC(N)=O)NC(=O)[C@@H]1CCCN1C(=O)[C@H](CCCCN)NC(=O)[C@@H]1CCCN1C(=O)[C@@H](N)CCCNC(=N)N)C(N)=O [Substance P]
- response of MrgprB2-HEK cells ([Ca2+]i) [1]: responded

Molecule: COc1ccc(CC2c3cc(OC)c(OC)cc3CC[N+]2(C)CCC(=O)OCCCCCOC(=O)CC[N+]2(C)CCc3cc(OC)c(OC)cc3C2Cc2ccc(OC)c(OC)c2)cc1OC (stereo not shown) [atracurium]
- histamine release from WT peritoneal mast cells (MrgprB2^MUT released substantially less) [3]: induced histamine release
- β-hexosaminidase release in MrgprX2 siRNA vs control siRNA cells [4]: significantly reduced
- stability of potency of solutions [5]: susceptible to oxidation and/or freeze-thaw effects

Molecule: CCN(CC)CCCC(C)Nc1ccnc2cc(Cl)ccc12 (stereo not shown) [chloroquine]
- response of MrgprB2-HEK cells ([Ca2+]i) [1]: no response

Molecule: CC[C@H](C)[C@H](NC(=O)[C@H](CC(=O)O)NC(=O)[C@H](CC(C)C)NC(=O)[C@H](Cc1c[nH]cn1)NC(=O)[C@@H]1CSSC[C@H](N)C(=O)N[C@@H](CO)C(=O)N[C@H]2CSSC[C@H](NC(=O)[C@H](CCC(=O)O)NC(=O)[C@H](CCCCN)NC(=O)[C@H](CC(=O)O)NC(=O)[C@H](CCSC)NC(=O)[C@H](CC(C)C)NC(=O)[C@H](CO)NC(=O)[C@H](CO)NC2=O)C(=O)N[C@@H](C(C)C)C(=O)N[C@@H](Cc2ccc(O)cc2)C(=O)N[C@@H](Cc2ccccc2)C(=O)N1)C(=O)N[C@H](C(=O)N[C@@H](Cc1c[nH]c2ccccc12)C(=O)O)[C@@H](C)CC [endothelin]
- activation / responsiveness of peritoneal mast cells, WT vs MrgprB2^MUT [2]: comparable
- activation / responsiveness of peritoneal mast cells, WT vs MrgprB2^MUT ([2]; listed as Endothelin): not significantly different

Molecule: NC(N)=NCCC[C@@H](N)C(=O)N[C@@H](CCCN=C(N)N)C(=O)N1CCC[C@H]1C(=O)N1C[C@H](O)C[C@H]1C(=O)NCC(=O)N[C@@H](Cc1cccs1)C(=O)N[C@@H](CO)C(=O)N1Cc2ccccc2C[C@@H]1C(=O)N1[C@H](C(=O)N[C@@H](CCCN=C(N)N)C(=O)O)C[C@@H]2CCCC[C@@H]21 [icatibant]
- hindpaw extravasation and swelling in WT mice but not in MrgprB2^MUT mice ([6]; icatibant at the clinical concentration, intraplantar 10 mg/ml, 5 μl, 15 minutes): induced extensive extravasation and swelling
- increase in paw thickness, without ketotifen ([6]; icatibant intraplantar, no ketotifen pretreatment, n=4): 40.7±2.1%
- histamine release from WT peritoneal mast cells (MrgprB2^MUT released substantially less) [3]: induced histamine release
- β-hexosaminidase release in MrgprX2 siRNA vs control siRNA cells [4]: significantly reduced

Molecule: CN1CCC(=C2c3ccccc3CC(=O)c3sccc32)CC1 [ketotifen]
- increase in paw thickness, with ketotifen ([6]; icatibant intraplantar after ketotifen i.p. pretreatment (25 μl of 10 mg/ml), n=4): 3.1±0.6%

Molecule: CC[C@H](C)[C@H](N)C(=O)N[C@@H](CC(N)=O)C(=O)N[C@@H](CC(C)C)C(=O)N[C@@H](CCCCN)C(=O)N[C@@H](C)C(=O)N[C@@H](CC(C)C)C(=O)N[C@@H](C)C(=O)N[C@@H](C)C(=O)N[C@@H](CC(C)C)C(=O)N[C@@H](C)C(=O)N[C@@H](CCCCN)C(=O)N[C@@H](CCCCN)C(=O)N[C@H](C(=O)N[C@@H](CC(C)C)C(N)=O)[C@@H](C)CC [mastoparan]
- histamine release from WT peritoneal mast cells (MrgprB2^MUT released substantially less) [3]: induced histamine release
- β-hexosaminidase release in MrgprX2 siRNA vs control siRNA cells [4]: significantly reduced

Molecule: COc1cc2c(cc1OC)[C@@H](Cc1cc(OC)c(OC)c(OC)c1)[N+](C)(CCCOC(=O)CC/C=C/CCC(=O)OCCC[N+]1(C)CCc3cc(OC)c(OC)cc3[C@H]1Cc1cc(OC)c(OC)c(OC)c1)CC2 (stereo partly shown) [mivacurium]
- stability of potency of solutions [5]: susceptible to oxidation and/or freeze-thaw effects

Molecule: COc1cc2c3cc1Oc1cc(ccc1O)C[C@@H]1c4c(cc(OC)c(O)c4Oc4ccc(cc4)C[C@@H]3N(C)CC2)CC[N+]1(C)C [tubocurarine]
- stability of potency of solutions [5]: susceptible to oxidation and/or freeze-thaw effects

Molecule: BAMS-22: MrgprX1 and MrgprC11 agonist Bovine Adrenal Medulla derived peptide, fragment 8-22 (VGRPEWWMDYQKRYG)
- percentages of peritoneal mast cells responding, differences ([2]; 500 nM, Fluo-4, p=0.39): not significant

Molecule: cortistatin
- activation / responsiveness of peritoneal mast cells, WT vs MrgprB2^MUT [2]: strongly activated WT but not MrgprB2^MUT mast cells

Molecule: insulin: Recombinant human insulin from Roche, negative control
- activation / responsiveness of peritoneal mast cells, WT vs MrgprB2^MUT [2]: had no effect; also recorded: not significant

Molecule: streptavidin: stimulus for biotin-conjugated human IgE sensitized LAD2 cells
- β-hexosaminidase release ([4]; 0.1 μg/ml streptavidin, biotin-conjugated human IgE sensitized LAD2 cells): 71.3±1.8 % release
